Measured values published in ChEMBL document CHEMBL2177025, “Chemical proteomics-based analysis of off-target binding profiles for rosiglitazone and pioglitazone: clues for assessing potential for cardiotoxicity” (J Med Chem, 2012).
Active and inactive are the calls of the source. No cut-off for these calls is given here.

Experiments:
[1] = molecular target: H(+)/Cl(-) exchange transporter 6 (Mus musculus) (UniProt O35454); test: Binding affinity to mouse chloride channel protein 6 after 15 mins by chromatographic analysis
[2] = molecular target: Afadin- and alpha-actinin-binding protein (Rattus norvegicus) (UniProt Q8CGZ2); test: Binding affinity to afadin- and alpha-actinin-binding protein in Sprague-Dawley rat heart homogenate after 15 mins by chromatographic analysis; type: tissue-based
[3] = molecular target: Multiple PDZ domain protein (Mus musculus) (UniProt Q8VBX6); test: Binding affinity to mouse multiple PDZ domain protein by chromatographic analysis
[4] = molecular target: Serine/threonine-protein kinase MAK (Mus musculus) (UniProt Q04859); test: Binding affinity to mouse serine/threonine-protein kinase MAK by chromatographic analysis
[5] = molecular target: 26S proteasome non-ATPase regulatory subunit 1 (Rattus norvegicus) (UniProt O88761); test: Binding affinity to 26S proteasome non-ATPase regulatory subunit 1 in Sprague-Dawley rat heart homogenate after 15 mins by chromatographic analysis; type: tissue-based
[6] = molecular target: Protein-tyrosine kinase 2-beta (Rattus norvegicus) (UniProt P70600); test: Binding affinity to focal adhesion kinase 2 in Sprague-Dawley rat heart homogenate after 15 mins by chromatographic analysis; type: tissue-based
[7] = molecular target: ATP synthase F(1) complex catalytic subunit beta, mitochondrial (Rattus norvegicus) (UniProt P10719); test: Binding affinity to mitochondrial ATP synthase beta chain in Sprague-Dawley rat heart homogenate after 15 mins by chromatographic analysis; type: tissue-based
[8] = molecular target: Trace amine-associated receptor 7b (Mus musculus) (UniProt Q5QD11); test: Binding affinity to mouse trace amine-associated receptor 7b by chromatographic analysis
[9] = molecular target: ATP synthase F(1) complex subunit alpha, mitochondrial (Rattus norvegicus) (UniProt P15999); test: Binding affinity to mitochondrial ATP synthase alpha chain in Sprague-Dawley rat heart homogenate after 15 mins by chromatographic analysis; type: tissue-based
[10] = molecular target: Neuronal acetylcholine receptor subunit alpha-10 (Rattus norvegicus) (UniProt Q9JLB5); test: Binding affinity to neuronal acetylcholine receptor subunit alpha-10 in Sprague-Dawley rat heart homogenate after 15 mins by chromatographic analysis; type: tissue-based
[11] = molecular target: Transcription factor SOX-5 (Mus musculus) (UniProt P35710); test: Binding affinity to mouse transcription factor SOX-5 after 15 mins by chromatographic analysis
[12] = molecular target: Dynactin subunit 1 (Mus musculus) (UniProt O08788); test: Binding affinity to mouse dynactin-1 by chromatographic analysis
[13] = molecular target: Ras/Rap GTPase-activating protein SynGAP (Rattus norvegicus) (UniProt Q9QUH6); test: Binding affinity to RasGTPase-activating protein SynGAP in Sprague-Dawley rat heart homogenate after 15 mins by chromatographic analysis relative to pioglitazone; type: tissue-based
[14] = molecular target: Sodium-dependent multivitamin transporter (Rattus norvegicus) (UniProt O70247); test: Binding affinity to sodium-dependent multivitamin transporter in Sprague-Dawley rat heart homogenate after 15 mins by chromatographic analysis; type: tissue-based
[15] = molecular target: PX domain-containing protein kinase-like protein (Rattus norvegicus) (UniProt Q4FZZ1); test: Binding affinity to PX domain-containing protein kinase-like protein in Sprague-Dawley rat heart homogenate after 15 mins by chromatographic analysis relative to pioglitazone; type: tissue-based
[16] = molecular target: T1, Long-chain specific acyl-CoA dehydrogenase, mitochondrial (Rattus norvegicus) (UniProt P15650); test: Binding affinity to mitochondrial long-chain specific acyl-CoA dehydrogenase in Sprague-Dawley rat heart homogenate after 15 mins by chromatographic analysis relative to rosiglitazone; type: tissue-based
T1 sequence (whole entry): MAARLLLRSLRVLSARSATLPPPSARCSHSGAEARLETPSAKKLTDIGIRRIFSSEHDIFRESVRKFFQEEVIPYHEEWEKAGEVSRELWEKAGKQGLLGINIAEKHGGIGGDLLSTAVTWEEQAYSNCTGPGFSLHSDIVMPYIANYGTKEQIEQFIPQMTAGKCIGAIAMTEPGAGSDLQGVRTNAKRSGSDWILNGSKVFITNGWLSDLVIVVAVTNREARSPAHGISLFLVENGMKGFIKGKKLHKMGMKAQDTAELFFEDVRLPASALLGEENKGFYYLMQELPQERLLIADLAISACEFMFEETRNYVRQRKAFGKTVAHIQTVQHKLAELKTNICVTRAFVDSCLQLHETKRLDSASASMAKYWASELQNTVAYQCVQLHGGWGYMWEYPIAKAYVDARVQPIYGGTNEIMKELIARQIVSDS

Norrin (Mus musculus) = Norrin (Mus musculus) (UniProt P48744); test: Binding affinity to mouse norrin precursor by chromatographic analysis
[17] = molecular target: T2, Dihydrolipoyl dehydrogenase, mitochondrial (Mus musculus) (UniProt O08749); test: Binding affinity to mouse mitochondrial dihydrolipoyl dehydrogenase by chromatographic analysis relative to rosiglitazone
T2 sequence (whole entry): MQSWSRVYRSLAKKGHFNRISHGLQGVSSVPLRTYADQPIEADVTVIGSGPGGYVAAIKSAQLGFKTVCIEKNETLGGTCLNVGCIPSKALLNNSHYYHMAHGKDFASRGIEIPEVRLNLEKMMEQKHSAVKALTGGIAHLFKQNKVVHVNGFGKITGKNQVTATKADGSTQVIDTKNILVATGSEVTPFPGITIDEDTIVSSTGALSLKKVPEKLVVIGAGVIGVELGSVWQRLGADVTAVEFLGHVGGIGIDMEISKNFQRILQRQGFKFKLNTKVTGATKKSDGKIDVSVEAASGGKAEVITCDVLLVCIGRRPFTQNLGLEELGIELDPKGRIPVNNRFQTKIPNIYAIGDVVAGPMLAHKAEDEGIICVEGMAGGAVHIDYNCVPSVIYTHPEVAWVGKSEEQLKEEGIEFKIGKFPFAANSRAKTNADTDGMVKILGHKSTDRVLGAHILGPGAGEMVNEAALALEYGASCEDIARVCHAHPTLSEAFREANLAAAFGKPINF

[18] = molecular target: T3, Cardiotrophin-like cytokine factor 1 (Mus musculus) (UniProt Q9QZM3); test: Binding affinity to mouse cardiotrophin-like cytokine factor 1 by chromatographic analysis
T3 sequence (whole entry): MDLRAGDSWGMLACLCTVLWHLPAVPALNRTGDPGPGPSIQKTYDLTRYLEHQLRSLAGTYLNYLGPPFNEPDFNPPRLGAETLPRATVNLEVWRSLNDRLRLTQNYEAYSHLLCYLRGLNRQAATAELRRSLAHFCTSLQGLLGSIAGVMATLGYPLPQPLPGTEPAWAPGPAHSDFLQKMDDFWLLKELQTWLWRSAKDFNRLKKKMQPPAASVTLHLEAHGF

[19] = molecular target: Importin-7 (Mus musculus) (UniProt Q9EPL8); test: Binding affinity to mouse importin-7 by chromatographic analysis
Dystonin (Mus musculus) = Dystonin (Mus musculus) (UniProt Q91ZU6); test: Binding affinity to mouse bullous pemphigoid antigen 1 by chromatographic analysis
[20] = molecular target: Neurofibromin (Mus musculus) (UniProt Q04690); test: Binding affinity to mouse neurofibromin by chromatographic analysis relative to pioglitazone
[21] = molecular target: Protein kinase C and casein kinase substrate in neurons protein 2 (Mus musculus) (UniProt Q9WVE8); test: Binding affinity to mouse protein kinase C and casein kinase substrate in neurons protein 2 by chromatographic analysis
Chain of Protein kinase C and casein kinase substrate in neurons protein 2 (Mus musculus) (Q9WVE8 whole entry): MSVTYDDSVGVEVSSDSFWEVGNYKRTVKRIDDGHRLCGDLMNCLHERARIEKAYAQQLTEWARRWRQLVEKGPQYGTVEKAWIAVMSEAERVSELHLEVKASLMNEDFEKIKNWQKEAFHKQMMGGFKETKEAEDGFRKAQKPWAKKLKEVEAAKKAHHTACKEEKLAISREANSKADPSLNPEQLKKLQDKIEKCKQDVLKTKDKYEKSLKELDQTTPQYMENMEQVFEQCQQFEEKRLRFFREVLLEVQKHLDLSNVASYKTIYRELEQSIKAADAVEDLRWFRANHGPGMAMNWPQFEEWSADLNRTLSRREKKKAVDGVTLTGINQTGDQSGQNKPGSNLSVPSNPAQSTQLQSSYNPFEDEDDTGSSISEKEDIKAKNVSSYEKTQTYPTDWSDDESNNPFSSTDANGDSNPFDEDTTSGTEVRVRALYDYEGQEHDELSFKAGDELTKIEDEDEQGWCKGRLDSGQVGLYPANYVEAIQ

Chain of ATP synthase F(1) complex catalytic subunit beta, mitochondrial (Rattus norvegicus) (P10719 whole entry, one chain of several): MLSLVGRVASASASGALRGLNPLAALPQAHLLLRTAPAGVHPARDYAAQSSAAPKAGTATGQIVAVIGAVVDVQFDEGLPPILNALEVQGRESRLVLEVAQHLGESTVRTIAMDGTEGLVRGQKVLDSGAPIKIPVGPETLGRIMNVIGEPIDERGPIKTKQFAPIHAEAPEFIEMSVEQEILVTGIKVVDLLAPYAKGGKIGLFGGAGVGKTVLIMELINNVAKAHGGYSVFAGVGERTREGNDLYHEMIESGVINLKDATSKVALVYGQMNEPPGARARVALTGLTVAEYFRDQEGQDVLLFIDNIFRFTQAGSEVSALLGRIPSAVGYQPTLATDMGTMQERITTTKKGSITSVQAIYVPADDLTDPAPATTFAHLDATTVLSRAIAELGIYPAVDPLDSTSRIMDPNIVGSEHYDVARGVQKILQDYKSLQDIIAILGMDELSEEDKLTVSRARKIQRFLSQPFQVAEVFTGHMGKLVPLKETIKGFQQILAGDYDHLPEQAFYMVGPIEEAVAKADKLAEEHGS
Chain of Sodium-dependent multivitamin transporter (Rattus norvegicus) (O70247 whole entry, the tested form may be a part): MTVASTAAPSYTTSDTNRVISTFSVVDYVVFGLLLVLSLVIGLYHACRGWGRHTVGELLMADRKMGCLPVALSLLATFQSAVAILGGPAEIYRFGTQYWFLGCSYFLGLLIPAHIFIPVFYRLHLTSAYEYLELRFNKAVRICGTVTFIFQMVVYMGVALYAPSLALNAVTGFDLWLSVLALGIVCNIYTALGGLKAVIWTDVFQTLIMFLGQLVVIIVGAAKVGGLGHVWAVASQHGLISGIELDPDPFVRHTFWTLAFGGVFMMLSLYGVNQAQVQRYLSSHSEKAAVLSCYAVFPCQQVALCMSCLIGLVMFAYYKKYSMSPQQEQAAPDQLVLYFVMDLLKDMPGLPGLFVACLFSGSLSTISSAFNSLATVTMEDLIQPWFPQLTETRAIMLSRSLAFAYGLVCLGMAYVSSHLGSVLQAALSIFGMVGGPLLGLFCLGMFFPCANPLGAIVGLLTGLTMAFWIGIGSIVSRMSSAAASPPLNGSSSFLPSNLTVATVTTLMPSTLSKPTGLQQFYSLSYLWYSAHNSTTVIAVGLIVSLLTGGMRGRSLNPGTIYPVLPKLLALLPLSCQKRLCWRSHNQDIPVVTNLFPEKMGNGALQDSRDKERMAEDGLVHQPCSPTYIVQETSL
Chain of Serine/threonine-protein kinase MAK (Mus musculus) (Q04859 whole entry): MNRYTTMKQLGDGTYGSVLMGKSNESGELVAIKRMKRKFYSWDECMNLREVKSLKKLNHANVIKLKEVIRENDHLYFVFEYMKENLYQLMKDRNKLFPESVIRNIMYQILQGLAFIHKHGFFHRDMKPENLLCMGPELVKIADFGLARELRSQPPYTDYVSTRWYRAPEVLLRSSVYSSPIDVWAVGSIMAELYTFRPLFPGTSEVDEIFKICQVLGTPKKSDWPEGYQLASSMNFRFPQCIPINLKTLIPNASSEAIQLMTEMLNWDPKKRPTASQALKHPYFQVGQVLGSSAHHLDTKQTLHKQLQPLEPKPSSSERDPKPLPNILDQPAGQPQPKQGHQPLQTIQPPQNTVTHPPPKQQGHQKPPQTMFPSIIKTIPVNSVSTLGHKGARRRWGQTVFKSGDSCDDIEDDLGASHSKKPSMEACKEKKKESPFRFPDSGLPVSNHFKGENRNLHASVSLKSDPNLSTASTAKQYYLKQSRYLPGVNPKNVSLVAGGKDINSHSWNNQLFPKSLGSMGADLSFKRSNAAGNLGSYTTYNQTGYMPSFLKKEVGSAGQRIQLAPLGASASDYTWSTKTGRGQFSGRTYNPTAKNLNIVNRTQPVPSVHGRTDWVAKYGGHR
Chain of Neurofibromin (Mus musculus) (Q04690 whole entry): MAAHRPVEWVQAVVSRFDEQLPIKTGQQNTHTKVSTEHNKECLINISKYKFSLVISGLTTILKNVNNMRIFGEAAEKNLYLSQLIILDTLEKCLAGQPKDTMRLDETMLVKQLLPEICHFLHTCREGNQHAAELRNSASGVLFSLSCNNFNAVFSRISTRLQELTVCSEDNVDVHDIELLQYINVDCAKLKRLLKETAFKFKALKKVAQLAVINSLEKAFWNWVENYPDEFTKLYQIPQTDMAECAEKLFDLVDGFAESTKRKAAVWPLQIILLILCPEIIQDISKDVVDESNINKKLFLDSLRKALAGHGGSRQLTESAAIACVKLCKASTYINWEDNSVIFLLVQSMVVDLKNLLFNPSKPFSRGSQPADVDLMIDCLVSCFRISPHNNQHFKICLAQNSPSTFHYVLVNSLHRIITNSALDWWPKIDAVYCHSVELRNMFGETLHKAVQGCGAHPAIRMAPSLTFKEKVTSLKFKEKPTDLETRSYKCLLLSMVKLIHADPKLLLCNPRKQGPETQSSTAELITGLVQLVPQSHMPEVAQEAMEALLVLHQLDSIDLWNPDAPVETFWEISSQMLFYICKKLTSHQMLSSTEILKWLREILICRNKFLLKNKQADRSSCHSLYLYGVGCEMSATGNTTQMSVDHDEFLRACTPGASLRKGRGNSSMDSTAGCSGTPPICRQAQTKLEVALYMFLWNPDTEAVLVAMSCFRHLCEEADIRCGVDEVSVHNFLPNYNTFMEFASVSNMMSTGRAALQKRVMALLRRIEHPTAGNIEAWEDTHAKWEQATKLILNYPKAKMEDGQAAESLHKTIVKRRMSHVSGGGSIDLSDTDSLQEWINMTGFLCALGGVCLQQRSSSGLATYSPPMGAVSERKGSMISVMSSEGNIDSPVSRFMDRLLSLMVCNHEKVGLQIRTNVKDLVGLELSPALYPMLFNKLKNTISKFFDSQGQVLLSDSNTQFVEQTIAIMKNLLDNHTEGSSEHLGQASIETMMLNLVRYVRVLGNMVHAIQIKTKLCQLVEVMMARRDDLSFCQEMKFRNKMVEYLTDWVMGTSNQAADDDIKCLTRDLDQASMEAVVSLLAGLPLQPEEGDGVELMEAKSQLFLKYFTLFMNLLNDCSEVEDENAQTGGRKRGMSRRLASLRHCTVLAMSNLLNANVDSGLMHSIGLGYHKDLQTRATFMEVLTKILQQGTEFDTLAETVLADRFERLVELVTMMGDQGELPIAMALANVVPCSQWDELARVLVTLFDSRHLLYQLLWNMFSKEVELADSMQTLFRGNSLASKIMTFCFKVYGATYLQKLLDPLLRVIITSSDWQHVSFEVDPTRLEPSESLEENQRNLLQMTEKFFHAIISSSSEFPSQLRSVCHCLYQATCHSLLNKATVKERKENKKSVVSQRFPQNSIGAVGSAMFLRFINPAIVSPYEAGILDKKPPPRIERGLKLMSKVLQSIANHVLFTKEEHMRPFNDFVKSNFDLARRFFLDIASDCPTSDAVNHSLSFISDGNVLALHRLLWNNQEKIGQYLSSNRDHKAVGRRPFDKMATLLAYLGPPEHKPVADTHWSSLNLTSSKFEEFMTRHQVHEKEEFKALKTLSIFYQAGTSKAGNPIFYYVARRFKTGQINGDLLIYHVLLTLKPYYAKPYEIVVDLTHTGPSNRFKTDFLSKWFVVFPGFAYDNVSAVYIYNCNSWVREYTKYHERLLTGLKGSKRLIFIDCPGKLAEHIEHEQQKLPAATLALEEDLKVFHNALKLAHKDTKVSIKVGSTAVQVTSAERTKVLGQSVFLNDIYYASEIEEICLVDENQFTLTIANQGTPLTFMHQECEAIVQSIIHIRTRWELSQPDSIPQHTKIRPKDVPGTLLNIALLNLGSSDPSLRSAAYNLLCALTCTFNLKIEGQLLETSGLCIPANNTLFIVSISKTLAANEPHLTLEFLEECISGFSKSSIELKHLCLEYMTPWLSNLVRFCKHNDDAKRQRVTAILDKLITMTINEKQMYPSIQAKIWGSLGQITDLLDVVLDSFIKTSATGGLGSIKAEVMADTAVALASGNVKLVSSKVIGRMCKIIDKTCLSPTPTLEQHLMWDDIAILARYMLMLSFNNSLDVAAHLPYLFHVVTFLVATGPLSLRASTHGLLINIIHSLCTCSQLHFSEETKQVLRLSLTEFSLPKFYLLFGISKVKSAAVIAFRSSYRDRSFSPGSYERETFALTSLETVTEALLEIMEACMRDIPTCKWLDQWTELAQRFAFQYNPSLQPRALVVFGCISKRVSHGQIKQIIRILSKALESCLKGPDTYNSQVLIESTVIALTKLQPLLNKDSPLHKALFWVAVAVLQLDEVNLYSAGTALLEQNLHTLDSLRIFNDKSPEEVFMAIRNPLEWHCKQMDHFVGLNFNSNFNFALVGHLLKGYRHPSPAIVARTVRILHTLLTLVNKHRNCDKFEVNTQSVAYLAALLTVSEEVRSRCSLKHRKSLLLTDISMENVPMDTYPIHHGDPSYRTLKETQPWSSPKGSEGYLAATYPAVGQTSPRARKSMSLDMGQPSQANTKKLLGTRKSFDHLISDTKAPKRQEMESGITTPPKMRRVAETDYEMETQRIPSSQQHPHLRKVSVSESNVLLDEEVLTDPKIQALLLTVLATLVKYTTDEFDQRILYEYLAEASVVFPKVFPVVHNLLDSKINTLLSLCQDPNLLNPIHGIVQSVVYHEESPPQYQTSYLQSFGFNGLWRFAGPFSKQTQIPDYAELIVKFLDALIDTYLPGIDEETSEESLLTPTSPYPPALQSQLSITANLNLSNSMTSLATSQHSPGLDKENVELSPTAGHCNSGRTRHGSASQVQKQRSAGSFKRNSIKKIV

Row | SMILES | Activity [1] | Activity [2] | Activity [3] | Activity [4] | Activity [5] | Activity [6] | Activity [7] | Activity [8] | Activity [9] | Activity [10] | Activity [11] | Activity [12] | Activity [14] | Activity [16] | Activity (Norrin (Mus musculus)) | Activity [17] | Activity [18] | Activity [19] | Activity (Dystonin (Mus musculus)) | Activity [21] | further results
1 | CN(CCOc1ccc(CC2SC(=O)NC2=O)cc1)c1ccccn1 (stereo not drawn) | Active | Active | Active | Active | Active | inactive | Active | inactive | Active | Active | Active | Active | Active | Active | Active | Active | Active | Active | Active | Active | fold change (FC) [13]: 2.12; fold change (FC) [15]: 2.64; fold change (FC) [20]: 3.1
2 | CCc1ccc(CCOc2ccc(CC3SC(=O)NC3=O)cc2)nc1 (stereo not drawn) | Active | Active | Active | Active | Active | Active | Active | Active | Active | Active | Active | Active | Active | Active | inactive | Active | Active | Active | Active | inactive | Activity [13]: Active; Activity [15]: Active; fold change (FC) [16]: 5.78; fold change (FC) [17]: 1.88; Activity [20]: Active
